IC50, CC50 and EC50 data for seven molecules are collected here from ChEMBL document CHEMBL1201862, “PubChem BioAssay data set” (2004).

Activity calls are given as the source filed them.

One may read the CC50 as the concentration giving 50% cytotoxicity. For orientation: EC50 means the concentration that produces a half-maximal response.

Test [1] addresses Nuclear receptor subfamily 5 group A member 2 (Homo sapiens, UniProt O00482). Format: functional, cell-based.
The target of a further test is Steroidogenic factor 1 (Homo sapiens, UniProt Q13285). Briefly: Counterscreen for inverse agonists of the liver receptor homolog-1 (LRH-1; NR5A2): Luminescence-based cell-based high throughput dose response assay to identify inverse agonists of the Steroidogenic Factor 1 Nuclear Receptor (SF1; NR5A1). Format: functional.
A short description of test [2]: nonselective StAR promoter luciferase inhibitors – cell-based, luminescence, luciferase reporter, counter-screen for LRH-1 inverse agonist project, dose response (AID 651969). Format: functional. (In a reporter assay the amount or activity of a reporter protein is the signal.)
Test [3] has as its target Glucose-6-phosphate 1-dehydrogenase (Homo sapiens, UniProt P11413). Briefly: inhibition of Homo sapiens G6PD, dose series – biochemical, fluorescence, selectivity assay for P. falciparum G6PD inhibitor project, dose response (AID 504792). It is filed as functional.
Test [4] is described as follows: viability loss in HeLa cells – cytotoxicity control for MgcRacGAP inhibitor project, dose response (AID 624300). It is filed as functional.
Test [5] addresses T1, Rac GTPase-activating protein 1 (Homo sapiens, UniProt Q9H0H5).
T1 sequence (Q9H0H5 whole entry): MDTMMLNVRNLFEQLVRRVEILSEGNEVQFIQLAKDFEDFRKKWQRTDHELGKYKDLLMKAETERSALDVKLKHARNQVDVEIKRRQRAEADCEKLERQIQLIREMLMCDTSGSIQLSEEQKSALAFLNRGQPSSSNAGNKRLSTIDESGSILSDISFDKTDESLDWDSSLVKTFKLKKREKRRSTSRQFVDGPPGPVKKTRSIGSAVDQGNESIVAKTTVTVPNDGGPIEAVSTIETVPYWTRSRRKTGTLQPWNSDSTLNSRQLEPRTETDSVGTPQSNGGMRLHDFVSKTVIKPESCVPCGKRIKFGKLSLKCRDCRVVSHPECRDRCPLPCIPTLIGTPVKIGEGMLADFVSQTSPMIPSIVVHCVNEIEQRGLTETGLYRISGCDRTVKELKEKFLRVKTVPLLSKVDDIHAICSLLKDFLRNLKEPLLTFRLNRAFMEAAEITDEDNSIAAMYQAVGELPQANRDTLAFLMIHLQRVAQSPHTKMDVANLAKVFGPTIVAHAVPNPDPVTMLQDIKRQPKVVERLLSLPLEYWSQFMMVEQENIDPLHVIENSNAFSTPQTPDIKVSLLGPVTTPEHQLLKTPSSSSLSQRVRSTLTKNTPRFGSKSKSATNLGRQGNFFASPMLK
As to the kind of experiment: blockers of MgcRacGAP-driven Rac1 GTP hydrolysis – biochemical, ADP Hunter fluorescence, primary and confirmatory, confirmation (AID 624330). It is filed as functional.

For the next test, the target named is Mu-type opioid receptor (Homo sapiens, UniProt P35372). It is filed as functional, cell-based.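 Note: U2OS cells with beta-arrestin recruitment to OPRM1 by beta-gal complementation.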
Test [6] concerns the target 5-hydroxytryptamine receptor 2A (Mus musculus, UniProt P35363). It is filed as functional, cell-based.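 Note: CHO-K1 cells with tagged receptor and beta-arrestin; agonist potency measured as compound-induced activation of the receptor.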
Test [7] deals with T2, RNA-binding protein pos-1 (Caenorhabditis elegans, UniProt G5EF15).
T2 sequence (G5EF15 whole entry): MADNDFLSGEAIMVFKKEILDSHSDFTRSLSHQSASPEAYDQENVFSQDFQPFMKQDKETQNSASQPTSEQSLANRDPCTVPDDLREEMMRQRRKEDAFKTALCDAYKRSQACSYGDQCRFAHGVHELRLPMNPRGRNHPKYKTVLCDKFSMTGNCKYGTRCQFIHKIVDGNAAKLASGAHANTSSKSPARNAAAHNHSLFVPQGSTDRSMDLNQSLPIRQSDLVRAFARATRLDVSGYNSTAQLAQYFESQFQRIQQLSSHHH
Briefly: disruptors of C. elegans POS-1 RNA interaction – biochemical, fluorescence polarization, dose response (AID 1964).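 Note: purified POS-1 fused to maltose binding protein made in E. coli; potency of compounds blocking POS-1 binding to fluorescent RNA.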

The target in test [8] is T3, Zinc finger protein mex-5 (Caenorhabditis elegans, UniProt Q9XUB2).
T3 sequence (Q9XUB2 whole entry): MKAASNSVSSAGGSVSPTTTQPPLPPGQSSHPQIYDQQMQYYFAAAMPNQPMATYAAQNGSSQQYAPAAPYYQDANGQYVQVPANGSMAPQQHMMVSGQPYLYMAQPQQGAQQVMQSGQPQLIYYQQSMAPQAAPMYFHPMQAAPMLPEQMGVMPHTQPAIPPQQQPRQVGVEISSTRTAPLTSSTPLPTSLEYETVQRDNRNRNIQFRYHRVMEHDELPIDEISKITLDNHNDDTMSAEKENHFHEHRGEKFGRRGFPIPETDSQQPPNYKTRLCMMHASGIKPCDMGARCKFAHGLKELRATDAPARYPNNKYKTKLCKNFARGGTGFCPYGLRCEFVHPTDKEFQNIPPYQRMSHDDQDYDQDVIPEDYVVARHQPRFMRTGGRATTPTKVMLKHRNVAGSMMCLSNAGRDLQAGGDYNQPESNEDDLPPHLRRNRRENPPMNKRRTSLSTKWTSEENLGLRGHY
As to the kind of experiment: potency of MEX-5 RNA-binding blockers – biochemical, C. elegans, fluorescence polarization, dose response (AID 1960).

For test [9], the target named is T4, Carboxy-terminal domain RNA polymerase II polypeptide A small phosphatase 1 (Homo sapiens, UniProt Q9GZU7).
T4 sequence (Q9GZU7 whole entry): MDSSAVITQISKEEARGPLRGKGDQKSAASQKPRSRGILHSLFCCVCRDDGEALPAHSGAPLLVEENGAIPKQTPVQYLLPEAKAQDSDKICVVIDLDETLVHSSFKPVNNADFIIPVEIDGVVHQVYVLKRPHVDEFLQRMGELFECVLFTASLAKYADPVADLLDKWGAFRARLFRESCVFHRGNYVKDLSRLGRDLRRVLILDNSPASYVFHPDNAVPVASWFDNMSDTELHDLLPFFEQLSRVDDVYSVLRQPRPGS
Briefly: CTDSP1 inhibitors, concentration-response, biochemical, absorbance readout, ultra-high-throughput screen actives (AID 540297). It is filed as functional.

Test [10] concerns the target T5, Tyrosine-protein phosphatase non-receptor type 11 (Homo sapiens, UniProt Q06124).
T5 sequence (Q06124 whole entry): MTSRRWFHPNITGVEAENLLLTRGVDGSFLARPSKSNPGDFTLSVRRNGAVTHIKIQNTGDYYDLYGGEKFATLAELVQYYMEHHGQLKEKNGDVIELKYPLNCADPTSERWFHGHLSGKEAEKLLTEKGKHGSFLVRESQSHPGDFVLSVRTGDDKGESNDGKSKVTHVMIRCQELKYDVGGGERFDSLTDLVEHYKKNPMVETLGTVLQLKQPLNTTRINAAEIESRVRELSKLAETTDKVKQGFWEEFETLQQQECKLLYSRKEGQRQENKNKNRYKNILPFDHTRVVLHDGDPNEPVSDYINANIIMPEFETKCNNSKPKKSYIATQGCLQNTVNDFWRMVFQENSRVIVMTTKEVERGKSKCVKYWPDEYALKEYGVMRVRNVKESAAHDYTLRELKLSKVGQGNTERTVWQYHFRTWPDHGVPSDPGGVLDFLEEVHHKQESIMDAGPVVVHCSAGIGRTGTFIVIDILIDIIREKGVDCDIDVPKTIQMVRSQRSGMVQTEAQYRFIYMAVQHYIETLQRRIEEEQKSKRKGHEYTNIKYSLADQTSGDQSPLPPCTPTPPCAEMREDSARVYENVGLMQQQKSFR
Briefly: PTPN11 enzyme inhibitors – biochemical, selectivity assay for STEP inhibitor project, dose response (AID 602367). As to conditions: read-out: IC50_Mean. It is filed as functional.

The target of test [11] is T6, Tyrosine-protein phosphatase non-receptor type 5 (Homo sapiens, UniProt P54829).
T6 sequence (P54829 whole entry): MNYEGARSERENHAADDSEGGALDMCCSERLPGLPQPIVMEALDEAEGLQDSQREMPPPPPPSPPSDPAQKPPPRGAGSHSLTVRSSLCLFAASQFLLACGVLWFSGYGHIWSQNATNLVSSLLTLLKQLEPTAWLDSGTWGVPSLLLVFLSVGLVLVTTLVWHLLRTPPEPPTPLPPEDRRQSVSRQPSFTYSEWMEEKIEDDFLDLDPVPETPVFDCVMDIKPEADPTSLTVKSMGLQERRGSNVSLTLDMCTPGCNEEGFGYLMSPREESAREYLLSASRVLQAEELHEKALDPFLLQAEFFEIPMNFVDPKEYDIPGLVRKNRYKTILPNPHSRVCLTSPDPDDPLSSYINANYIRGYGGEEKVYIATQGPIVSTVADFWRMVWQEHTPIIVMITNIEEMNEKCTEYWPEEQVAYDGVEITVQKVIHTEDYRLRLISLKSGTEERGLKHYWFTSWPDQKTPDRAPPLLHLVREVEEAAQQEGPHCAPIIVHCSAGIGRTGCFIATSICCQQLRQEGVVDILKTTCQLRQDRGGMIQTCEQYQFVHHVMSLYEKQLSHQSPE
Briefly: PTPN5 enzyme inhibition – biochemical, fluorescence intensity, uHTS hits, confirmation (AID 602372). As to conditions: read-out: IC50_Mean. It is filed as functional.

Test [12] deals with Dual specificity protein phosphatase 3 (Homo sapiens, UniProt P51452). Briefly: VHR phosphatase inhibition, dose response, selectivity assay for STEP inhibitor project, biochemical (AID 602374). It is filed as functional. As to conditions: read-out: IC50_Mean.
Dual specificity protein phosphatase 3, sequence (P51452 whole entry): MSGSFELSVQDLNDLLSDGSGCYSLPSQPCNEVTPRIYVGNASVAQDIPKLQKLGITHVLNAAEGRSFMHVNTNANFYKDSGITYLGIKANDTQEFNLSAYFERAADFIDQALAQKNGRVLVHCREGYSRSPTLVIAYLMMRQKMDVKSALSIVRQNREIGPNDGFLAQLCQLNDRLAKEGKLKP

Nuclear receptor subfamily 5 group A member 2, sequence (O00482 whole entry): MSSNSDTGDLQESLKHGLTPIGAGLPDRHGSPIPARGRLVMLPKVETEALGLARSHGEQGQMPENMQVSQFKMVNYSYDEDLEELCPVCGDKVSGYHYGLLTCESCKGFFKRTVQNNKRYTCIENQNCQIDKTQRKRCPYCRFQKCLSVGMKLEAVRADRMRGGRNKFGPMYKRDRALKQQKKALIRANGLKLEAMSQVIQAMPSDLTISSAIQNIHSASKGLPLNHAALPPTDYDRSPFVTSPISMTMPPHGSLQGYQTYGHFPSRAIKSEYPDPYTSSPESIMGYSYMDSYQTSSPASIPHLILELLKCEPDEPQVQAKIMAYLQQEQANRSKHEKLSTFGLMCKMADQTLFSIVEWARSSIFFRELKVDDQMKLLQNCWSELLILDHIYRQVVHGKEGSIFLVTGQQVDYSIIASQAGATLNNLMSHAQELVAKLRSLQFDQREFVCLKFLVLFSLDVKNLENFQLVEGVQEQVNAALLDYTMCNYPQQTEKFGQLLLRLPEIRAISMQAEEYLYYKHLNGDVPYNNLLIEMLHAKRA
Steroidogenic factor 1, sequence (Q13285 whole entry): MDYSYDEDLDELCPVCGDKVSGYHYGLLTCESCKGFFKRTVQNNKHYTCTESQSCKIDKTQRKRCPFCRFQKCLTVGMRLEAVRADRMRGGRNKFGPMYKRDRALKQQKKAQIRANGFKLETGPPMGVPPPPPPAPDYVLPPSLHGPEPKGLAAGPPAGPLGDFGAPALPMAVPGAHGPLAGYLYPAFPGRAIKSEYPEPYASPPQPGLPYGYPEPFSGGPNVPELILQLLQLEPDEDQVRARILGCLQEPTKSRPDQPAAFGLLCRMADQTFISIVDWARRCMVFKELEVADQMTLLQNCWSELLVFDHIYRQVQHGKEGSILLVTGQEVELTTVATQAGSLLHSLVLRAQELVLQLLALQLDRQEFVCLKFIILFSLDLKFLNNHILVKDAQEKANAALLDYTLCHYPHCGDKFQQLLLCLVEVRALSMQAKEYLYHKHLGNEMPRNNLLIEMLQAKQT
Glucose-6-phosphate 1-dehydrogenase, sequence (P11413 whole entry): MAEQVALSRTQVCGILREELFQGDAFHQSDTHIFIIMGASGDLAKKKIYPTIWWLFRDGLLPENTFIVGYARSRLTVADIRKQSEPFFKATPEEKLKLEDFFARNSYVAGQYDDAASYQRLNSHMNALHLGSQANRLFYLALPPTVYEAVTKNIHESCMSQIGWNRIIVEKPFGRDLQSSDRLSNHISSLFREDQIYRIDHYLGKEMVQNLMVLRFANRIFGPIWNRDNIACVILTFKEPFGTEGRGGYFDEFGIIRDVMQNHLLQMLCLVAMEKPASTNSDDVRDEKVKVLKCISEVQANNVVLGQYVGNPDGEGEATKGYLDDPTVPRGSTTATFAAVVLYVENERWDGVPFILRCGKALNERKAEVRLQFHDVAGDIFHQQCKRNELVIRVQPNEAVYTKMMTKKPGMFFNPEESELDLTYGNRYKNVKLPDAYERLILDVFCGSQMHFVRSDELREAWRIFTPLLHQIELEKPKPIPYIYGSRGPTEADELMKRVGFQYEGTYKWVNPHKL
Mu-type opioid receptor, sequence (P35372 whole entry): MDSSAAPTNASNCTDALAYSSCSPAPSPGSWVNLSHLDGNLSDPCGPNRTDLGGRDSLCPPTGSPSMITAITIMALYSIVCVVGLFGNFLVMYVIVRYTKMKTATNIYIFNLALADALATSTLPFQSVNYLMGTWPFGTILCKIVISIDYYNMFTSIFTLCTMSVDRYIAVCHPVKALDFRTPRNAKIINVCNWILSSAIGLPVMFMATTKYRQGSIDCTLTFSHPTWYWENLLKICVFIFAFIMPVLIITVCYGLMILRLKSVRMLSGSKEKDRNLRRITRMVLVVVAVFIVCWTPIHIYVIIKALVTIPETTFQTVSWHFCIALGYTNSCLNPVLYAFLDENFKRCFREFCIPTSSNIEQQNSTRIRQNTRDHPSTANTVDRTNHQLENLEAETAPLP
5-hydroxytryptamine receptor 2A, sequence (P35363 whole entry): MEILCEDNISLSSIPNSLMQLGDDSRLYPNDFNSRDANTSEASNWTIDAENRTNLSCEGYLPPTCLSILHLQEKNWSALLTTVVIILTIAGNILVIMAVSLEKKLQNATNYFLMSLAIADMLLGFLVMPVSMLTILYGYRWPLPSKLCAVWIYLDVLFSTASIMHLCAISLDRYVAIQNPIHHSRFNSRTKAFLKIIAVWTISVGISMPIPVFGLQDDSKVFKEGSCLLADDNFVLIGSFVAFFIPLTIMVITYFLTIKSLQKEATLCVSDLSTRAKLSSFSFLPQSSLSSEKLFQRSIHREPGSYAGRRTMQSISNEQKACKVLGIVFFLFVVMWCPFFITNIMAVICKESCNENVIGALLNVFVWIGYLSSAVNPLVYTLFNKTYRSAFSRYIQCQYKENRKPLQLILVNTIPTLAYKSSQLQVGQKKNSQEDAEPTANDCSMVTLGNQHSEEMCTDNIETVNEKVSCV

With `COc1ccc(CCNC(=O)COC(=O)C23CC4CC(CC(C4)C2)C3)cc1`, the IC50 in test [1] was 28.6 µM (inactive); at Steroidogenic factor 1 it was 2.17 µM (active); in test [2], 35.9 µM (inactive).

Take `Cn1c(=O)c2c(nc(S)n2CCCc2ccccc2)n(C)c1=O`: the IC50 in test [3] is 60.7 µM (inactive); in [5] it was 16.1 µM (active). Further, the CC50 in [4] was 100 µM (active).

With `Cc1cccc(CN2CCN(c3ccccn3)CC2)c1`, the EC50 was 92.5 µM (inactive) at Mu-type opioid receptor and 128 nM (active) in test [6].

With `Cc1nn(Cc2ccccc2)c(C)c1C(=O)OCC(=O)Nc1ccccc1SCC#N`, the IC50 was 1.33 µM (active) in [1], 2.41 µM (active) on Steroidogenic factor 1 and 35.9 µM (inactive) in test [2].

As for `O=C1NC(=O)N(c2ccccc2)C(=O)/C1=C/c1coc2ccc(O)cc2c1=O`, the EC50 in [7] and in [8] was > 300 µM (not active) throughout. The CC50 in test [4] was 100 µM (active). Besides, in [5], the IC50 was 110 µM (active).

For `CCOc1ccc(NC(=O)CSc2nncc(=O)n2N)cc1`, the IC50 in test [1] was 35.9 µM (inactive); at Steroidogenic factor 1 it was 12 µM (inactive); in [2], 35.9 µM (inactive).

Regarding `O=C(N/N=C/c1ccc(Br)cc1)c1ccc(Br)o1`, the IC50 in [9] is 6.85 µM (active); in [10] it was 9.11 µM (active); in [11] it was 17.1 µM (active); in test [12], 8.79 µM (active).
